Experimental data reported in US10696689B2, “Somatostatin modulators and uses thereof” (CRINETICS PHARMACEUTICALS, INC., priority 2018, dated 2020).

Assays:
[1] = target: human SST2 receptor (SSTR2) (Homo sapiens (Human), UniProt P30874); assay: cAMP assay: inhibition of cAMP via human SST2 receptor in CHO-K1 cells; assay type: cell-based; conditions: CHO-K1 cells stably expressing human SSTR2, NKH477 stimulated
Text: (§1) General overview: All five SSTR subtypes are Gi coupled G-protein coupled receptors (GPCRs) that lead to decreases in intracellular cyclic AMP (cAMP) when activated by an agonist. Therefore, measurement of intracellular cAMP levels can be used to assess whether compounds of the invention are agonists of SSTR subtypes (John Kelly, Troy Stevens, W. Joseph Thompson, and Roland Seifert, Current Protocols in Pharmacology, 2005, 2.2.1-2.2). One example of an intracellular cAMP assay is described below.
(§2) Four days prior to the assay, 5,000 Chinese hamster ovary cells (CHO-K1, ATCC # CCL-61) stably expressing the human somatostatin receptor subtype 2 are plated in each well of a 96-well tissue culture-treated plate in Ham's F12 growth media (ThermoFisher #10-080-CM) supplemented with 10% donor bovine serum (Gemini Bio-Products #100-506), 100 U/mL penicillin; 100 ug/mL streptomycin; 2 mM L-glutamine (Gemini Bio-Products #400-110) and 0.2 mg/mL hygromycin B (GoldBio #31282-04-9). The cells are cultured at 37° C., 5% CO2 and 95% humidity. On the day of the assay, the media is aspirated and the cells are treated with 50 μL of 1.6 μM NKH477 (Sigma # N3290) plus various dilutions of compounds of the invention in assay buffer [1× Hank's Balanced Salt Solution (ThermoFisher # SH3058802), 0.5 mM HEPES pH 7.4, 0.1% bovine serum albumin, 0.2 mM 3-Isobutyl-1-methylxanthine (IBMX, VWR #200002-790)]. The cells are incubated for 20 minutes at 37° C. (the final concentration of the compounds of the invention are typically 0-10,000 nM). The cells are treated with 50 μL of lysis buffer (HRTF cAMP kit, Cisbio). The lysate is transferred to 384-well plates and cAMP detection and visualization antibodies are added and incubated for 1-24 hours at room temperature. The time-resolved fluorescent signal is read with a Tecan M1000Pro multiplate reader. The intracellular cAMP concentrations are calculated by regression to a standard curve and are plotted vs. the concentration of the compounds of the invention and the EC50 of the compounds are calculated using standard methods. All data manipulations are in GraphPad Prism v6.

[2] = system: hSSTR2 vs. hSSTR4; assay: Selectivity for inhibition of cAMP via hSSTR2 vs. hSSTR4; assay type: cell-based, human; conditions: Table C
Text: as §1, §2

[3] = Liver microsomal stability assay; assay type: in vitro ADME; conditions: human liver microsomes 0.5 mg/mL, 1 μM compound, 37° C.
Experimental: The in vitro stabilities of compounds of interest were determined for various species using pooled male and female human, pooled male Sprague-Dawley rat, pooled male Cynomolgus monkey, and pooled male Beagle dog liver microsomes at microsomal protein concentrations of 0.5 mg/mL. Incubations were carried out in a potassium phosphate buffer (50 mM). The NADPH-generating system was composed of NADP+ (1 mM), magnesium chloride (3 mM), EDTA (1 mM), glucose-6-phosphate (5 mM) and glucose-6-phosphate dehydrogenase (1 Unit/mL) for all experiments. Compounds of interest in DMSO were added to achieve a final incubation concentration of 1 μM (final DMSO content was 0.1% v/v and final acetonitrile content was 0.9%). The final incubation volume was 400 μL. Incubations were conducted at 37° C. for 0, 5, 10, 20, 40 and 60 minutes in a shaking water bath and terminated by removing 50 μL of incubation mixture and adding to 100 μL of ice cold acetonitrile containing internal standard. Following precipitation by centrifugation at 3500 rpm and 4° C. for 30 minutes, compounds of interest and internal standard were analyzed in the resultant supernatant using a multiple reaction monitoring (MRM) LC-MS/MS method. MS conditions were optimized for each analyte.
The following Table (Table D) illustrates human liver microsomal stability of exemplary compounds.

Sequence of human SST2 receptor (SSTR2) (P30874 whole entry): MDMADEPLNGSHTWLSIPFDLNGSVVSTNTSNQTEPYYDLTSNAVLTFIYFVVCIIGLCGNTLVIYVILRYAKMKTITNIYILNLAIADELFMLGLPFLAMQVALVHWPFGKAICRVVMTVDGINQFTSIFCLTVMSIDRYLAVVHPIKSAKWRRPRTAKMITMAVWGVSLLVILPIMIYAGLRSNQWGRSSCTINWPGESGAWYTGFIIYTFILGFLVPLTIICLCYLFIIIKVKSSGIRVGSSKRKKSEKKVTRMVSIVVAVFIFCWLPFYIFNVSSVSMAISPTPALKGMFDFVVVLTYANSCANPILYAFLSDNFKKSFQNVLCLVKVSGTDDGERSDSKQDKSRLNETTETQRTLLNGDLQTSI

Row | EC50 [1] [nM] | HLM t1/2 [3] [h] | Structure (SMILES) | hSST4/hSST2 (ratio) [2]
1 | 0.1 to 1 | 1.65 | COc1cc(C#N)cc2[nH]c(-c3c(N)ncc(-c4cc(F)cc(F)c4)c3N3CC[C@@H]4NCCO[C@H]4C3)nc12 [Compound 3-18, 2-{4-[(4αS,8αS)-octahydro-1H-pyrido[3,4-b][1,4]oxazin-6-yl]-2-amino-5-(3,5-difluorophenyl)pyridin-3-yl}-4-methoxy-1H-1,3-benzodiazole-6-carbonitrile] | b (b = bewteen 15 and 50;)
2 | 0.1 to 1 | 5.78 | N#Cc1cc(F)c2nc(-c3c(N)ncc(-c4cc(F)cc(F)c4)c3N3CC[C@@H]4OCCN[C@H]4C3)[nH]c2c1 [Compound 3-19, 2-{4-[(4αS,8αS)-octahydro-1H-pyrido[3,4-b][1,4]oxazin-6-yl]-2-amino-5-(3,5-difluorophenyl)pyridin-3-yl}-4-fluoro-1H-1,3-benzodiazole-6-carbonitrile] | b (b = bewteen 15 and 50;)
3 | 0.1 to 1 | >11.6 | COc1cc(C#N)cc2[nH]c(-c3c(N)ncc(-c4cccc(F)c4)c3N3CC[C@@H]4NCCO[C@H]4C3)nc12 [Compound 3-11, 2-{4-[(4αS, 8αS)-octahydro-1H-pyrido[3,4-b][1,4]oxazin-6-yl]-2-amino-5-(3-fluorophenyl)pyridin-3-yl}-4-methoxy-1H-1,3-benzodiazole-6-carbonitrile] | a (a = above 50,)
4 | 0.1 to 1 | 3.85 | Nc1ncc(-c2cccc(F)c2)c(N2CC[C@@H]3NCCO[C@H]3C2)c1-c1nc2c(F)cc(F)cc2[nH]1 [Compound 3-3, 4-[(4αS,8αS)-octahydro-1H-pyrido[3,4-b][1,4]oxazin-6-yl]-3-(4,6-difluoro-1H-1,3-benzodiazol-2-yl)-5-(3-fluorophenyl)pyridin-2-amine] | c (c = between 2.5 and 15;)
